Experimental data published in patent publication US20240376094A2, “SELECTIVE BCL-XL PROTAC COMPOUNDS AND METHODS OF USE” (Les Laboratoires Servier, priority 2021, published 2024).

What was measured:
Assay type in all cases: cell-based
MOLT-4 cells = assay: MOLT-4 cell viability, CTG assay; conditions: Homo sapiens, MOLT-4, 48 h
How it was run: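 Viability read as total ATP luminescence (CTG) after 48 h compound treatment, 11 points at 5-fold spacing in triplicate, cells in RPMI 1640/10% FBS. IC50 is the concentration halving signal relative to control, four-parameter fit, averaged over at least 2 experiments.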

Bcl-xL = target: T1, Bcl-xL (Homo sapiens, UniProt Q07817); assay: HCT116 Bcl-xL degradation, capillary-based immunoassay (WES); conditions: for DC50: HCT116, 24 h, 9-point serial dilution
T1 construct: Measured levels of Bcl-xL protein of HCT116 cells treated with the tested compounds; host or cells: HCT116
How it was run: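 Bcl-xL protein level by capillary WES immunoassay in HCT116 lysates, as % of untreated after cofilin normalization. Compound exposure was 24 h at 10 and 100 nM and/or a 9-point series, in quadruplicate. Four-parameter fitting gave the DC50.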

HiBiT-tagged BCL-xL = target: T2, HiBiT-tagged BCL-xL (Homo sapiens, UniProt Q07817); assay: NCI-H1650 BCL-xL protein levels, Nano-Glo HiBiT Lytic Detection; conditions: NCI-H1650 expressing HiBiT-tagged BCL-xL, overnight incubation, read-out: Bcl-xl HIBIT NCIH1650 DC50
T2 construct: expressed in transfected cells; host or cells: NCI-H1650 (ATCC No. CRL-5883), engineered HiBiT cell line
How it was run: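 HiBiT luminescence after cell lysis with LgBiT/furimazine reagent reported BCL-xL levels, expressed relative to untreated wells and fitted with a four-parameter logistic equation. Engineered NCI-H1650 cells were exposed overnight at 37° C to compound at final 0.508 nM-10 μM (10 points, triplicate plates).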

[1] = test system: EBC-1 lung cancer cell line; assay: EBC-1 cell proliferation, CellTiter-Glo assay; conditions: Homo sapiens, 120 h; Ebc-1 cell viability, CTG assay, 5 days of treatment; read-out: CTG 5 day Ebc1 GI50
How it was run: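 CellTiter-Glo read-out after 5-day compound treatment, normalised to untreated cells, with GI50 derived by four-parameter logistic regression. Ten concentrations spanning 0.508 nM–10 μM were added to 1000 EBC-1 cells per well the day after seeding. Assays required at least one cell doubling versus Day 0.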

T1 sequence (Q07817 whole entry): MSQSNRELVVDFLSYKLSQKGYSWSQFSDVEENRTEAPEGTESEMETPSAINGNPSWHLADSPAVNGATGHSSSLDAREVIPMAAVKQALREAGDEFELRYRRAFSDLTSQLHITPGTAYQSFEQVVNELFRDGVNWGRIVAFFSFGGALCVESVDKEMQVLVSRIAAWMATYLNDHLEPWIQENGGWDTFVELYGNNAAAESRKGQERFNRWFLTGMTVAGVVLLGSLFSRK
T2 sequence (Q07817 whole entry): as above

Row | Structure (SMILES) | IC50 (MOLT-4 cells) [nM] | DC50 (Bcl-xL) [nM] | DC50 (HiBiT-tagged BCL-xL) [nM] | GI50 [1] [nM] | remaining activity at 0.01 µM (Bcl-xL; HCT-116, HCT116, 10 nM, 24 h, % of untreated cells) [%] | remaining activity at 0.1 µM (Bcl-xL; HCT-116, HCT116, 100 nM, 24 h, % of untreated cells) [%]
1 | Cc1ncsc1-c1ccc([C@H](C)NC(=O)[C@@H]2C[C@@H](O)CN2C(=O)[C@@H](NC(=O)CCCCCCCCCCNC(=O)c2nc(N3CCCc4c3nnc(Nc3nc5ccccc5s3)c4C)ccc2-c2cnn(CC34CC5(C)CC(C)(C3)CC(OCCN3CCCC3)(C5)C4)c2C)C(C)(C)C)cc1 [Example 125, 6-[3-(1,3-benzothiazol-2-ylamino)-4-methyl-6,7-dihydro-5H-pyrido[2,3-c]pyridazin-8-yl]-3-[1-[[3,5-dimethyl-7-(2-pyrrolidin-1-ylethoxy)-1-adamantyl]methyl]-5-methyl-pyrazol-4-yl]-N-[11-[[(1S)-1-[(2S,4R)-4-hydroxy-2-[[(1S)-1-[4-(4-methylthiazol-5-yl)phenyl]ethyl]carbamoyl]pyrrolidine-1-carbonyl]-2,2-dimethyl-propyl]amino]-11-oxo-undecyl]pyridine-2-carboxamide] | 9.34 | 0.487 | 1 | 81 | – | –
2 | Cc1cc(N(CCCCN(C)C(=O)CCCCCCCCCSC(C)(C)[C@H](NC(=O)C2(F)CC2)C(=O)N2C[C@H](O)C[C@H]2C(=O)NCc2ccc(-c3scnc3C)cc2)c2ccc(-c3cnn(CC45CC6(C)CC(C)(C4)CC(OCCN(C)C)(C6)C5)c3C)c(C(=O)O)n2)nnc1Nc1nc2ccccc2s1 [Example 126, 6-[[6-(1,3-benzothiazol-2-ylamino)-5-methyl-pyridazin-3-yl]-[4-[10-[(2R)-2-[(1-fluorocyclopropanecarbonyl)amino]-3-[(2S,4R)-4-hydroxy-2-[[4-(4-methylthiazol-5-yl)phenyl]methylcarbamoyl]pyrrolidin-1-yl]-1,1-dimethyl-3-oxo-propyl]sulfanyldecanoyl-methyl-amino]butyl]amino]-3-[1-[[3-[2-(dimethylamino)ethoxy]-5,7-dimethyl-1-adamantyl]methyl]-5-methyl-pyrazol-4-yl]pyridine-2-carboxylic acid] | 240 | > 316 | > 1670 | 1430 | – | –
3 | Cc1ncsc1-c1ccc([C@H](C)NC(=O)[C@@H]2C[C@@H](O)CN2C(=O)[C@@H](NC(=O)CCCCCCCNC(=O)c2nc(N3CCCc4c3nnc(Nc3nc5ccccc5s3)c4C)ccc2-c2cnn(CC34CC5(C)CC(C)(C3)CC(OCCN3CCCC3)(C5)C4)c2C)C(C)(C)C)cc1 [Example 129, 6-[3-(1,3-benzothiazol-2-ylamino)-4-methyl-6,7-dihydro-5H-pyrido[2,3-c]pyridazin-8-yl]-3-[1-[[3,5-dimethyl-7-(2-pyrrolidin-1-ylethoxy)-1-adamantyl]methyl]-5-methyl-pyrazol-4-yl]-N-[8-[[(1S)-1-[(2S,4R)-4-hydroxy-2-[[(1S)-1-[4-(4-methylthiazol-5-yl)phenyl]ethyl]carbamoyl]pyrrolidine-1-carbonyl]-2,2-dimethyl-propyl]amino]-8-oxo-octyl]pyridine-2-carboxamide] | 5.3 | 7.34 | 1 | 3 | – | –
4 | Cc1ncsc1-c1ccc([C@H](C)NC(=O)[C@@H]2C[C@@H](O)CN2C(=O)[C@@H](NC(=O)CCCCCCCCCCCNC(=O)c2nc(N3CCCc4c3nnc(Nc3nc5ccccc5s3)c4C)ccc2-c2cnn(CC34CC5(C)CC(C)(C3)CC(OCCN3CCCC3)(C5)C4)c2C)C(C)(C)C)cc1 [Example 131, 6-[3-(1,3-benzothiazol-2-ylamino)-4-methyl-6,7-dihydro-5H-pyrido[2,3-c]pyridazin-8-yl]-3-[1-[[3,5-dimethyl-7-(2-pyrrolidin-1-ylethoxy)-1-adamantyl]methyl]-5-methyl-pyrazol-4-yl]-N-[12-[[(1S)-1-[(2S,4R)-4-hydroxy-2-[[(1S)-1-[4-(4-methylthiazol-5-yl)phenyl]ethyl]carbamoyl]pyrrolidine-1-carbonyl]-2,2-dimethyl-propyl]amino]-12-oxo-dodecyl]pyridine-2-carboxamide] | 13.9 | 1.34 | 1 | 8 | – | –
5 | Cc1ncsc1-c1ccc([C@H](C)NC(=O)[C@@H]2C[C@@H](O)CN2C(=O)[C@@H](NC(=O)CCCCCCCCCN(C)CCOC23CC4(C)CC(C)(CC(Cn5ncc(-c6ccc(N7CCCc8c7nnc(Nc7nc9ccccc9s7)c8C)nc6C(=O)O)c5C)(C4)C2)C3)C(C)(C)C)cc1 [Example 133, 6-[3-(1,3-benzothiazol-2-ylamino)-4-methyl-6,7-dihydro-5H-pyrido[2,3-c]pyridazin-8-yl]-3-[1-[[3-[2-[[10-[[(1S)-1-[(2S,4R)-4-hydroxy-2-[[(1S)-1-[4-(4-methylthiazol-5-yl)phenyl]ethyl]carbamoyl]pyrrolidine-1-carbonyl]-2,2-dimethyl-propyl]amino]-10-oxo-decyl]-methyl-amino]ethoxy]-5,7-dimethyl-1-adamantyl]methyl]-5-methyl-pyrazol-4-yl]pyridine-2-carboxylic acid] | 10.2 | – | > 1670 | 4 | 112 | 105
6 | Cc1ncsc1-c1ccc([C@H](C)NC(=O)[C@@H]2C[C@@H](O)CN2C(=O)[C@@H](NC(=O)CCCCCCCCCN2CCN(CC#Cc3ccc(OCCCc4sc(N5CCCc6c5nnc(Nc5nc7ccccc7s5)c6C)nc4C(=O)O)c(F)c3)CC2)C(C)(C)C)cc1 [Example 134, 2-[3-(1,3-benzothiazol-2-ylamino)-4-methyl-6,7-dihydro-5H-pyrido[2,3-c]pyridazin-8-yl]-5-[3-[2-fluoro-4-[3-[4-[10-[[(1S)-1-[(2S,4R)-4-hydroxy-2-[[(1S)-1-[4-(4-methylthiazol-5-yl)phenyl]ethyl]carbamoyl]pyrrolidine-1-carbonyl]-2,2-dimethyl-propyl]amino]-10-oxo-decyl]piperazin-1-yl]prop-1-ynyl]phenoxy]propyl]thiazole-4-carboxylic acid] | 7.19 | 0.564 | 1 | 2 | – | –

The next compounds have a lower IC50 (MOLT-4 cells) than those just listed; values first:

Row | IC50 (MOLT-4 cells) [nM] | DC50 (Bcl-xL) [nM] | DC50 (HiBiT-tagged BCL-xL) [nM] | GI50 [1] [nM] | remaining activity at 0.01 µM (Bcl-xL; HCT-116, HCT116, 10 nM, 24 h, % of untreated cells) [%] | remaining activity at 0.1 µM (Bcl-xL; HCT-116, HCT116, 100 nM, 24 h, % of untreated cells) [%] | Structure (SMILES)
7 | 3.69 | 1.01 | 1 | 25 | – | – | Cc1ncsc1-c1ccc([C@H](C)NC(=O)[C@@H]2C[C@@H](O)CN2C(=O)[C@@H](NC(=O)CCCCCCCCNC(=O)c2nc(N3CCCc4c3nnc(Nc3nc5ccccc5s3)c4C)ccc2-c2cnn(C[C@]34C[C@]5(C)C[C@](C)(C3)C[C@@](OCCN3CCCC3)(C5)C4)c2C)C(C)(C)C)cc1 [Example 124, 6-[3-(1,3-benzothiazol-2-ylamino)-4-methyl-6,7-dihydro-5H-pyrido[2,3-c]pyridazin-8-yl]-3-[1-[[3,5-dimethyl-7-(2-pyrrolidin-1-ylethoxy)-1-adamantyl]methyl]-5-methyl-pyrazol-4-yl]-N-[9-[[(1S)-1-[(2S,4R)-4-hydroxy-2-[[(1S)-1-[4-(4-methylthiazol-5-yl)phenyl]ethyl]carbamoyl]pyrrolidine-1-carbonyl]-2,2-dimethyl-propyl]amino]-9-oxo-nonyl]pyridine-2-carboxamide]
8 | 4.04 | 0.857 | 1 | 2 | – | – | Cc1ncsc1-c1ccc([C@H](C)NC(=O)[C@@H]2C[C@@H](O)CN2C(=O)[C@@H](NC(=O)CCCCCCCCCNC(=O)c2nc(N3CCCc4c3nnc(Nc3nc5ccccc5s3)c4C)ccc2-c2cnn(CC34CC5(C)CC(C)(C3)CC(OCCN3CCCC3)(C5)C4)c2C)C(C)(C)C)cc1 [Example 130, 6-[3-(1,3-benzothiazol-2-ylamino)-4-methyl-6,7-dihydro-5H-pyrido[2,3-c]pyridazin-8-yl]-3-[1-[[3,5-dimethyl-7-(2-pyrrolidin-1-ylethoxy)-1-adamantyl]methyl]-5-methyl-pyrazol-4-yl]-N-[10-[[(1S)-1-[(2S,4R)-4-hydroxy-2-[[(1S)-1-[4-(4-methylthiazol-5-yl)phenyl]ethyl]carbamoyl]pyrrolidine-1-carbonyl]-2,2-dimethyl-propyl]amino]-10-oxo-decyl]pyridine-2-carboxamide]
9 | 2.41 | 2.17 | 2 | 1 | – | – | Cc1ncsc1-c1ccc([C@H](C)NC(=O)[C@@H]2C[C@@H](O)CN2C(=O)[C@@H](NC(=O)CCCCCCCCCCCCCCCCN(C)CCOC23CC4(C)CC(C)(CC(Cn5ncc(-c6ccc(N7CCCc8c7nnc(Nc7nc9ccccc9s7)c8C)nc6C(=O)O)c5C)(C4)C2)C3)C(C)(C)C)cc1 [Example 145, 6-[3-(1,3-benzothiazol-2-ylamino)-4-methyl-6,7-dihydro-5H-pyrido[2,3-c]pyridazin-8-yl]-3-[1-[[3-[2-[[17-[[(1S)-1-[(2S,4R)-4-hydroxy-2-[[(1S)-1-[4-(4-methylthiazol-5-yl)phenyl]ethyl]carbamoyl]pyrrolidine-1-carbonyl]-2,2-dimethyl-propyl]amino]-17-oxo-heptadecyl]-methyl-amino]ethoxy]-5,7-dimethyl-1-adamantyl]methyl]-5-methyl-pyrazol-4-yl]pyridine-2-carboxylic acid]
